Measurements as given in patent US20220062240A1, “METHODS OF TREATING CANCER USING A CLK INHIBITOR” (BioSplice Therapeutics, Inc., priority 2018, published 2022).
Like-named read-outs stand apart in the source and are kept apart here.

Columns and labels:
MDA-MB-231-Luc = assay: CellTiter-Glo Viability Assay, breast cancer; assay type: cell-based; conditions: Homo sapiens, 96 h; MDA-MB-231-Luc, breast cancer, four days; read-out: EC50
HCC1599 = assay: CellTiter-Glo Viability Assay, breast cancer; assay type: cell-based; conditions: Homo sapiens, 96 h; HCC1599, breast cancer, four days; read-out: EC50
T47D = assay: CellTiter-Glo Viability Assay, breast cancer; assay type: cell-based; conditions: Homo sapiens, 96 h, breast cancer, four days, read-out: EC50
MCF7 = assay: CellTiter-Glo Viability Assay, breast cancer; assay type: cell-based; conditions: Homo sapiens, 96 h; MCF7, breast cancer, four days; read-out: EC50
BT-549 = assay: CellTiter-Glo Viability Assay, breast cancer; assay type: cell-based; conditions: Homo sapiens, 96 h; BT-549, breast cancer, four days; read-out: EC50
CAMA1 = assay: CellTiter-Glo Viability Assay, breast cancer; assay type: cell-based; conditions: Homo sapiens, CAMA-1, 96 h; CAMA1, breast cancer, four days; read-out: EC50
ZR-75-1 = assay: CellTiter-Glo Viability Assay, breast cancer; assay type: cell-based; conditions: Homo sapiens, 96 h; ZR-75-1, breast cancer, four days; read-out: EC50
DU4475 = assay: CellTiter-Glo Viability Assay, breast cancer; assay type: cell-based; conditions: Homo sapiens, DU-4475, 96 h; DU4475, breast cancer, four days; read-out: EC50
[1] = tested on: ovarian cancer (4 cell lines); assay: CellTiter-Glo Viability Assay, ovarian cancer; assay type: cell-based; conditions: Homo sapiens, inhibition of cancer cell proliferation
[2] = tested on: colorectal cancer (6 cell lines); assay: CellTiter-Glo Viability Assay, colorectal cancer; assay type: cell-based; conditions: Homo sapiens, inhibition of cancer cell proliferation
[3] = tested on: liver cancer (3 cell lines); assay: CellTiter-Glo Viability Assay, liver cancer; assay type: cell-based; conditions: Homo sapiens, inhibition of cancer cell proliferation
all 50 cell lines = assay: CellTiter-Glo Viability Assay, average across all cell lines; assay type: cell-based; conditions: Homo sapiens; across all 50 cell lines; read-out: average EC50 for inhibition of cancer cell proliferation
Outline: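 Luminescent ATP read-out (CellTiter-Glo) after a 4-day compound exposure at 37° C served as the viability measure. Cells were seeded at 300-3,000/well, compound wells run in duplicate against DMSO controls, and EC50 values came from fitted dose-response curves.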

[4] = tested on: pancreatic cancer (8 cell lines); assay: CellTiter-Glo Viability Assay, pancreatic cancer; assay type: cell-based; conditions: Homo sapiens, inhibition of cancer cell proliferation
CLK2 = molecular target: T1, CLK2 (Homo sapiens, UniProt P49760); assay: CLK2 kinase activity assay (Z-lyte, Ser/Thr 6 peptide); assay type: biochemical; conditions: recombinant CLK2 kinase, ATP 60 μM; read-out: EC50
T1 construct: purchased Thermo Fisher (Life Technologies), Z'-LYTE Kinase Assay Kits
Procedure: All reactions were performed in duplicate.

[5] = tested on: lung cancer (4 cell lines); assay: CellTiter-Glo Viability Assay, lung cancer; assay type: cell-based; conditions: Homo sapiens, inhibition of cancer cell proliferation
[6] = tested on: haematopoietic & lymphoid tumors (13 cell lines); assay: CellTiter-Glo Viability Assay, haematopoietic & lymphoid tumors; assay type: cell-based; conditions: Homo sapiens, inhibition of cancer cell proliferation
[7] = tested on: prostate cancer (5 cell lines); assay: CellTiter-Glo Viability Assay, prostate cancer; assay type: cell-based; conditions: Homo sapiens
CLK3 = CLK3 (Homo sapiens, UniProt P49761); assay: CLK3 kinase activity assay (Z-lyte, Ser/Thr 18 peptide)
Chain of CLK3 (P49761 whole entry): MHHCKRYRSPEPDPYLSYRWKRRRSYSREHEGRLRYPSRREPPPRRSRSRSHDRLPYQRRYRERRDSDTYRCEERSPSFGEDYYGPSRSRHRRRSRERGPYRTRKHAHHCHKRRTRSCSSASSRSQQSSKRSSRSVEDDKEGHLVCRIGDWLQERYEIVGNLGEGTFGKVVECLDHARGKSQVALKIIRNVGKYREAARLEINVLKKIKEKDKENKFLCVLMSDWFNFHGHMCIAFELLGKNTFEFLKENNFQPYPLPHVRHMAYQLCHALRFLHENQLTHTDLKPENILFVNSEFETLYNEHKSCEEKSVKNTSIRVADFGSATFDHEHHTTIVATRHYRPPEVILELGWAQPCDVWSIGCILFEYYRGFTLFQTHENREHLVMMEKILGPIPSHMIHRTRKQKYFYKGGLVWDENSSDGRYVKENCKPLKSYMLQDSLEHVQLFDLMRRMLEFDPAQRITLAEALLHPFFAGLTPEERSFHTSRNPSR

T1 sequence (P49760 whole entry): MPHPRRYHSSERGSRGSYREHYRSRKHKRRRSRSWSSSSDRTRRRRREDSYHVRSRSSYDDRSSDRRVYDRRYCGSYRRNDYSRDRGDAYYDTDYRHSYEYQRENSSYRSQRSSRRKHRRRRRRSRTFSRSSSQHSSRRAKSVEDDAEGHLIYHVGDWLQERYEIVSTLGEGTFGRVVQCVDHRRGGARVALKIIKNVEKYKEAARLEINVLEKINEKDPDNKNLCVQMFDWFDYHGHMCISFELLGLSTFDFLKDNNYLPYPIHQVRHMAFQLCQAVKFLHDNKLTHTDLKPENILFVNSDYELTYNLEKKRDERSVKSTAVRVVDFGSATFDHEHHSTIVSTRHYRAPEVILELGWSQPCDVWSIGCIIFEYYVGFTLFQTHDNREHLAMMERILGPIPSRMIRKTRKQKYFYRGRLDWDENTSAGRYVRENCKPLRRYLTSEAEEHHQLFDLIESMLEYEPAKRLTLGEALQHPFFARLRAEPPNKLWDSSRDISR

EC50 (MDA-MB-231-Luc): 890 nM
EC50 (HCC1599): 606 nM
EC50 (T47D): 1020 nM
EC50 (MCF7): 1280 nM
EC50 (BT-549): 549 nM
EC50 (CAMA1): 1850 nM
EC50 (ZR-75-1): 826 nM
EC50 (DU4475): 452 nM
EC50 ([1]; PA-1, PA1 cell line, read-out: Ovarian cancer, EC50 (μM) PA1): 0.71 µM
EC50 ([1]; TOV112D, TOV-112D cell line, read-out: Ovarian cancer, EC50 (μM) TOV-112D): 0.457 µM
EC50 ([1]; OV-90 cell line, read-out: Ovarian cancer, EC50 (μM) OV-90): 0.806 µM
EC50 ([1]; OVCAR-3 cell line, read-out: Ovarian cancer, EC50 (μM) OVCAR-3): 0.204 µM
EC50 ([2]; HCT-116, HCT116 cell line, read-out: Colorectal cancer, EC50 (μM) HCT116): 0.294 µM
EC50 ([2]; HT-29, HT29 cell line, read-out: Colorectal cancer, EC50 (μM) HT29): 0.537 µM
EC50 ([2]; SW-620, SW620 cell line, read-out: Colorectal cancer, EC50 (μM) SW620): 0.187 µM
EC50 ([2]; DLD-1 cell line, read-out: Colorectal cancer, EC50 (μM) DLD-1): 0.229 µM
EC50 ([2]; SW48 cell line, read-out: Colorectal cancer, EC50 (μM) SW48): 0.12 µM
EC50 ([2]; SW480 cell line, read-out: Colorectal cancer, EC50 (μM) SW480): 0.383 µM
EC50 ([3]; SNU-398, SNU398 cell line, read-out: Liver cancer, EC50 SNU398): 339 nM
EC50 ([3]; HEPG2 cell line, read-out: Liver cancer, EC50 HEPG2): 766 nM
EC50 ([3]; PLC/PRF/5 cell line, read-out: Liver cancer, EC50 PLC/PRF/5): 2190 nM
EC50 ([4]; BXPC-3, BxPC3 cell line, read-out: Pancreatic cancer, EC50 BxPC3): 422 nM
EC50 ([4]; CAPAN-1, Capan1 cell line, read-out: Pancreatic cancer, EC50 Capan1): 673 nM
EC50 ([4]; Capan-2, Capan2 cell line, read-out: Pancreatic cancer, EC50 Capan2): 495 nM
EC50 ([4]; MIA PaCa-2 cell line, read-out: Pancreatic cancer, EC50 MIA PaCa-2): 318 nM
EC50 ([4]; PANC 05.04 cell line, read-out: Pancreatic cancer, EC50 PANC 05.04): 635 nM
EC50 ([4]; PANC-1 cell line, read-out: Pancreatic cancer, EC50 PANC-1): 659 nM
EC50 ([4]; UPAFII cell line, read-out: Pancreatic cancer, EC50 UPAFII): 660 nM
EC50 (CLK2): 5.8 nM
EC50 ([5]; A-427, A427 cell line, read-out: Lung cancer, EC50 (μM) A427): 0.973 µM
EC50 ([5]; HCC78, HCC-78 cell line, read-out: Lung cancer, EC50 (μM) HCC-78): 1.28 µM
EC50 ([5]; NCI-H460 cell line, read-out: Lung cancer, EC50 (μM) NCI-H460): 0.649 µM
EC50 ([5]; NCI-H522 cell line, read-out: Lung cancer, EC50 (μM) NCI-H522): 0.312 µM
EC50 ([6]; DND41, DND-41 cell line, read-out: Haematopoietic & Lymphoid tumors, EC50 (μM) DND-41): 0.854 µM
EC50 ([6]; MV4-11, MV-4-11 cell line, read-out: Haematopoietic & Lymphoid tumors, EC50 (μM) MV-4-11): 0.069 µM
EC50 ([6]; Rec1, REC-1 cell line, read-out: Haematopoietic & Lymphoid tumors, EC50 (μM) REC-1): 0.361 µM
EC50 ([6]; SU-DHL-4, SUDHL4 cell line, read-out: Haematopoietic & Lymphoid tumors, EC50 (μM) SUDHL4): 0.424 µM
EC50 ([6]; HL-60 cell line, read-out: Haematopoietic & Lymphoid tumors, EC50 (μM) HL-60): 1.78 µM
EC50 ([6]; JM1 cell line, read-out: Haematopoietic & Lymphoid tumors, EC50 (μM) JM1): 0.375 µM
EC50 ([6]; JURKAT, Clone E6-1 cell line, read-out: Haematopoietic & Lymphoid tumors, EC50 (μM) JURKAT, Clone E6-1): 0.699 µM
EC50 ([6]; JeKo-1 cell line, read-out: Haematopoietic & Lymphoid tumors, EC50 (μM) JeKo-1): 0.469 µM
EC50 ([6]; KASUMI-1 cell line, read-out: Haematopoietic & Lymphoid tumors, EC50 (μM) KASUMI-1): 0.197 µM
EC50 ([6]; Loucy cell line, read-out: Haematopoietic & Lymphoid tumors, EC50 (μM) Loucy): 0.368 µM
EC50 ([6]; MOLT-4 cell line, read-out: Haematopoietic & Lymphoid tumors, EC50 (μM) MOLT-4): 1.22 µM
EC50 ([6]; TF-1 cell line, read-out: Haematopoietic & Lymphoid tumors, EC50 (μM) TF-1): 0.944 µM
EC50 ([6]; TOLEDO cell line, read-out: Haematopoietic & Lymphoid tumors, EC50 (μM) TOLEDO): 0.584 µM
EC50 ([7]; DU-145, read-out: Prostate cancer EC50 Du-145): 734 nM
EC50 ([7]; PC-3, PC3 cell line, inhibition of cancer cell proliferation, read-out: Prostate cancer EC50 PC3): 901 nM
EC50 ([7]; 22Rv1 cell line, inhibition of cancer cell proliferation, read-out: Prostate cancer EC50 22Rv1): 814 nM
EC50 ([7]; LNCap clone FGC cell line, inhibition of cancer cell proliferation, read-out: Prostate cancer EC50 LNCap clone FGC): 432 nM
EC50 ([7]; VCaP (Sigma) cell line, inhibition of cancer cell proliferation, read-out: Prostate cancer EC50 VCaP (Sigma)): 1220 nM
EC50 (CLK3): 50 nM
Structure (SMILES): Cn1ncc(-c2ccc3cnc(NC(=O)C4CC5(C4)CN(CCF)C5)cc3c2)c1CN1CCCCC1 [Compound 77]
EC50 (all 50 cell lines): 684 nM
